The record followed here is the supplement of paper PMC12076712.

Holding throughout (experiment): pIC50, kinobeads binding competition
For experiment [1], the target named is UniProt P48729. The method in brief:
(§1)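 Nine compound concentrations were tested, starting at 30 μM in 1:4 steps on live Jurkat cells (60 min, 37 °C, then lysis) or in 1:5 steps on Jurkat lysate or a 1:1:1:1 HEK293/K-562/HepG2/placenta lysate mix (60 min, 4 °C). Kinobeads-bound proteins were digested and quantified with TMT10 LC-MS/MS. pIC50 values are from logistic dose-response fits in the R drc package of fold changes relative to vehicle, from biological duplicates.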

For experiment [2], the target named is EPHA4 (UniProt P54764). The conditions noted are these: cell material: Lysate mix. A digest of the protocol:
as §1

Experiment [3] deals with T1, UniProt Q13188.
T1 sequence (whole entry): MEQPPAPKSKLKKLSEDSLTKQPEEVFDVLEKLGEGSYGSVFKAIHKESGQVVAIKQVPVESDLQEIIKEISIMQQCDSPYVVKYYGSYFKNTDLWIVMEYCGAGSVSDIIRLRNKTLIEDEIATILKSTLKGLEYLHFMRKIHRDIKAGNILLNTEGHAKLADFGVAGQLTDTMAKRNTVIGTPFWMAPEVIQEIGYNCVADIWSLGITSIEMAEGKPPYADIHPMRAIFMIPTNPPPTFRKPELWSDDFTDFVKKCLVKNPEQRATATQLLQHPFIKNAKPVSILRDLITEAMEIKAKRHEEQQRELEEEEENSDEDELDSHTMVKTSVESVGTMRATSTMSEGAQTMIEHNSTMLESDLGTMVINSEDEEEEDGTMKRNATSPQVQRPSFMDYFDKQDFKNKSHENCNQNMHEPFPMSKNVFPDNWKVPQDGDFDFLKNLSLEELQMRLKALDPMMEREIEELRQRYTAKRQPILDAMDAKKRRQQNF
A digest of the protocol: as §1

Experiment [4] has as its target T2, BRSK2 (UniProt Q8IWQ3).
T2 sequence (whole entry): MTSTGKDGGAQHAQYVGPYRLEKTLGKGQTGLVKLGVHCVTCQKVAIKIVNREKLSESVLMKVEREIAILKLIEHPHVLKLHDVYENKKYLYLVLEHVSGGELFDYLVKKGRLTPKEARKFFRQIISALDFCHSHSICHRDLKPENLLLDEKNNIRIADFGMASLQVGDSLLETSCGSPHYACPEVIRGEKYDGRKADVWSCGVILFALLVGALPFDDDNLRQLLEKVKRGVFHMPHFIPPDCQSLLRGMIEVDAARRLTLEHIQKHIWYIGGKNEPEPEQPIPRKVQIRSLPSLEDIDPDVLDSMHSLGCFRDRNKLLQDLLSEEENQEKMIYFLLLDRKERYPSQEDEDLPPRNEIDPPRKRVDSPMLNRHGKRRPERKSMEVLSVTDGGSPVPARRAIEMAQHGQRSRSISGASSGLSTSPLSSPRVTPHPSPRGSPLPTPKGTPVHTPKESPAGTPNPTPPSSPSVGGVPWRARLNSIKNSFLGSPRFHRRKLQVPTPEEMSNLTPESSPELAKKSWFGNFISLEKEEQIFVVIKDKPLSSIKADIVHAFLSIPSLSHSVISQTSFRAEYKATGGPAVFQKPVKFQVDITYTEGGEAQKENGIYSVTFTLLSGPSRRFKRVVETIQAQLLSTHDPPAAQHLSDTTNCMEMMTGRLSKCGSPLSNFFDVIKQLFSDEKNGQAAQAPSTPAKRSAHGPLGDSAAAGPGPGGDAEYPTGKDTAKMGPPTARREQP
The method in brief: as §1

The target of experiment [5] is PDIK1L (UniProt Q8N165). A digest of the protocol:
as §1

The target in experiment [6] is UniProt P49674. The method in brief: as §1
Sequence of UniProt P49674 (P49674 whole entry, looked up): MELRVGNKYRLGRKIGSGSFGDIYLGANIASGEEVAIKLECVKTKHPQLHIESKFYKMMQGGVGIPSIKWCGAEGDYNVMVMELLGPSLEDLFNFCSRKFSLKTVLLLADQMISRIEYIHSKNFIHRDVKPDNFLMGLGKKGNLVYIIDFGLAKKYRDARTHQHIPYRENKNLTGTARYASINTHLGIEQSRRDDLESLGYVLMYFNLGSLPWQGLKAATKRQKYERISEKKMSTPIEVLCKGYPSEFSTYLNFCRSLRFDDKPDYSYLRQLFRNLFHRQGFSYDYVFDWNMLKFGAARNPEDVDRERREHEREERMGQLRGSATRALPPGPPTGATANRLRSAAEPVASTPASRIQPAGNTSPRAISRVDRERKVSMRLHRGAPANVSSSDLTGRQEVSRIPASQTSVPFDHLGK
Experiment [7] addresses CAMK2B (UniProt Q13554). The conditions noted are these: cell material: Lysate mix. The method in brief: as §1
Experiment [8] deals with UniProt Q5TCX8. The method in brief:
as §1

Experiment [9] deals with T3, TAOK2 (UniProt Q9UL54).
T3 sequence (whole entry): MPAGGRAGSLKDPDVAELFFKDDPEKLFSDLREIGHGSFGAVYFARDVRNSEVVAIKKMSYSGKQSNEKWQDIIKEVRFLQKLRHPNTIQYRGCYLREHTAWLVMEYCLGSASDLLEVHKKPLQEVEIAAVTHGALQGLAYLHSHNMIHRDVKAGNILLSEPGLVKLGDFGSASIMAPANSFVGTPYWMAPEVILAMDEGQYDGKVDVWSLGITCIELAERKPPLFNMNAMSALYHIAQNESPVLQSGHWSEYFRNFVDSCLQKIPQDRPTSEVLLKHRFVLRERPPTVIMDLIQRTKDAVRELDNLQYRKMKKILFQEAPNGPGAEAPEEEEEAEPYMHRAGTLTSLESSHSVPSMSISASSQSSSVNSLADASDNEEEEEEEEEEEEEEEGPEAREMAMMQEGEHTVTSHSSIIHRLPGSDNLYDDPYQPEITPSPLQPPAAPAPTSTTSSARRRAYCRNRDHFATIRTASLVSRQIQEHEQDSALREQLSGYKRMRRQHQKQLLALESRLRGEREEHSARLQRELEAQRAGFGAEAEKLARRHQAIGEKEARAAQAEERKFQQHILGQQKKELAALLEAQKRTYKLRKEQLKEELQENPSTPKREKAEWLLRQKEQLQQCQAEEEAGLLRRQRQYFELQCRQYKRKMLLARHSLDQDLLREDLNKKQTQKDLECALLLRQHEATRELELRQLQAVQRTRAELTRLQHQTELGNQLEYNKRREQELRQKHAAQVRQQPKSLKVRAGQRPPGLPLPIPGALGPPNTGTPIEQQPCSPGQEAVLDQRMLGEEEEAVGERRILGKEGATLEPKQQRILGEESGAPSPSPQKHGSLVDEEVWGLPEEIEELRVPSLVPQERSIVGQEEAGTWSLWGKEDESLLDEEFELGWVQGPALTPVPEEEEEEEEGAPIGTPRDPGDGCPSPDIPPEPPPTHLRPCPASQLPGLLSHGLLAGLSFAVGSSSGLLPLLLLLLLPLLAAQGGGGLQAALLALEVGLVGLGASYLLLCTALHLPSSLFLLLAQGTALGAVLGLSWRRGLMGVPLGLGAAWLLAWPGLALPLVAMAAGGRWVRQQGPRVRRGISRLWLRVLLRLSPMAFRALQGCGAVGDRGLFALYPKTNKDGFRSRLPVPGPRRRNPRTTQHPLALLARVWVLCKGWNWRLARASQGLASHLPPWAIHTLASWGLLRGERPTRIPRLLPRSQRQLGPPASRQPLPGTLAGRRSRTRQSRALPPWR
The method in brief: as §1

Experiment [10] addresses UniProt Q02763. The conditions noted are these: cell material: Lysate mix. The method in brief:
as §1

Each structure is given as a SMILES string.

Sequence of EPHA4 (P54764 whole entry): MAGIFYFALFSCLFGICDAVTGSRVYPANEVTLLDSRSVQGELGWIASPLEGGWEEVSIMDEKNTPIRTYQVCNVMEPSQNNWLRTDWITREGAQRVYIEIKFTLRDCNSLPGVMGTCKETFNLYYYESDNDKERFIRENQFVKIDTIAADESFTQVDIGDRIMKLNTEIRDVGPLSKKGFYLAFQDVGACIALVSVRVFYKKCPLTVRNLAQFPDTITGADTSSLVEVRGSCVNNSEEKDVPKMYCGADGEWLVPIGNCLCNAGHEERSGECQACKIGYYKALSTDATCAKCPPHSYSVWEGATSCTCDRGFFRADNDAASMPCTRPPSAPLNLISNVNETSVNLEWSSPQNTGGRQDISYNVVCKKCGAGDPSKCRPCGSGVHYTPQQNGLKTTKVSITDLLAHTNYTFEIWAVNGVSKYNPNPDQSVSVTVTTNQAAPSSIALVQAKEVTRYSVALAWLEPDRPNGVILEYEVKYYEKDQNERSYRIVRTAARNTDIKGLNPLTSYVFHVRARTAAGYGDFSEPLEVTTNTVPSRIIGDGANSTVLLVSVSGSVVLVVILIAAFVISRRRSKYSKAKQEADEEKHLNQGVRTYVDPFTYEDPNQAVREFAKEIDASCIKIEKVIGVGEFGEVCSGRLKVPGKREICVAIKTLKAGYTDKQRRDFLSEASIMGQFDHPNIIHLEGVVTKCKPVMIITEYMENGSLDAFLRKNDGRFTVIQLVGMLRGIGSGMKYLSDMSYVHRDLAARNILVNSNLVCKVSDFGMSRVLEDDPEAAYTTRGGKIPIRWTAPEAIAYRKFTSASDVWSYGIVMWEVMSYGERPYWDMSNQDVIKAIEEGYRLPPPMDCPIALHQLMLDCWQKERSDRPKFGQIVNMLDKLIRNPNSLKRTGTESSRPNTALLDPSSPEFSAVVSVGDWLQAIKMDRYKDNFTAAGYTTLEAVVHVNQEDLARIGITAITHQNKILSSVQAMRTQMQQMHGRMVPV
Sequence of CAMK2B (Q13554 whole entry): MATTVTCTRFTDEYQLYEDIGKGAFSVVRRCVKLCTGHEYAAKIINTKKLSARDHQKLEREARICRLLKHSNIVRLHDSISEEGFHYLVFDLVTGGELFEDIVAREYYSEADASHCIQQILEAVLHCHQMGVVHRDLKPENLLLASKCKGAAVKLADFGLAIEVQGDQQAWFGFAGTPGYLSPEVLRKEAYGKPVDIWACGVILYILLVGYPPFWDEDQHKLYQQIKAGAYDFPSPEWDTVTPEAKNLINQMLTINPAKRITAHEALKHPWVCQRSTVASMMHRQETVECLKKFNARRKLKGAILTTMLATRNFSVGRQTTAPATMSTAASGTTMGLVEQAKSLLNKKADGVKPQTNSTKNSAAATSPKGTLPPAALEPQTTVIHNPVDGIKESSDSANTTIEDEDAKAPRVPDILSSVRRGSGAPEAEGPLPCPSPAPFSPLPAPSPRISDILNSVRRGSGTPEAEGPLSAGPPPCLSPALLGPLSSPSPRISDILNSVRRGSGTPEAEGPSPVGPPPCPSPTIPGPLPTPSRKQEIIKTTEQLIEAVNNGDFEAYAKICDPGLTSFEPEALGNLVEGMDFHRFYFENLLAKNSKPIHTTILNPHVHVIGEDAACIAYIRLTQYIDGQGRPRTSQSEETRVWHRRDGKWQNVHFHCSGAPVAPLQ
Sequence of UniProt Q02763 (Q02763 whole entry): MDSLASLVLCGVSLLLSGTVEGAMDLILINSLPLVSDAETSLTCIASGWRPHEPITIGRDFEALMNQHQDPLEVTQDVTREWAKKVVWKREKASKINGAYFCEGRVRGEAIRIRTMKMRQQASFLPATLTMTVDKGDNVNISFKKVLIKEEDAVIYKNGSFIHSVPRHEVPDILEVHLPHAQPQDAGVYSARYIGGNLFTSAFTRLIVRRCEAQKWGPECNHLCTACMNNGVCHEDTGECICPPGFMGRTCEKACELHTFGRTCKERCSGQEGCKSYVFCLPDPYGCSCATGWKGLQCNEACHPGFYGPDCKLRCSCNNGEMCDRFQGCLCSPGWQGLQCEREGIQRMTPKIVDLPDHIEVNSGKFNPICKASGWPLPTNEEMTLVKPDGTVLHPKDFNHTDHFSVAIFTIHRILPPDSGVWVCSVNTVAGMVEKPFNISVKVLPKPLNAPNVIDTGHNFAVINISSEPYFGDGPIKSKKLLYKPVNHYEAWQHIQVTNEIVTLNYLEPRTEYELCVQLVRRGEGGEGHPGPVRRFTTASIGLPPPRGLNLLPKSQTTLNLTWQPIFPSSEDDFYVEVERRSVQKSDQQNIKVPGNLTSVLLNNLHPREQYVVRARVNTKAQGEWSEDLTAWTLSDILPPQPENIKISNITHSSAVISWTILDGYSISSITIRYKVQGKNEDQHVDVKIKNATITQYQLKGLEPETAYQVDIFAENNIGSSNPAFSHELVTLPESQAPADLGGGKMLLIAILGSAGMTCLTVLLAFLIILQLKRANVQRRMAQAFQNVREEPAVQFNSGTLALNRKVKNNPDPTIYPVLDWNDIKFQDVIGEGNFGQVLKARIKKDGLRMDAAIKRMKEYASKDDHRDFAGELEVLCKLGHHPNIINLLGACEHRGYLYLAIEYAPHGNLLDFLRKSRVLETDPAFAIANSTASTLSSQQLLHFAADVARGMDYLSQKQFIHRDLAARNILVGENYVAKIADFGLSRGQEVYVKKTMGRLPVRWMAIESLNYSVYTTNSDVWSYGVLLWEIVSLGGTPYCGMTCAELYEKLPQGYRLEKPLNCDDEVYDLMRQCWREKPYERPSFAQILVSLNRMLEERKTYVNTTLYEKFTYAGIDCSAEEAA
Sequence of UniProt P48729 (P48729 whole entry, looked up): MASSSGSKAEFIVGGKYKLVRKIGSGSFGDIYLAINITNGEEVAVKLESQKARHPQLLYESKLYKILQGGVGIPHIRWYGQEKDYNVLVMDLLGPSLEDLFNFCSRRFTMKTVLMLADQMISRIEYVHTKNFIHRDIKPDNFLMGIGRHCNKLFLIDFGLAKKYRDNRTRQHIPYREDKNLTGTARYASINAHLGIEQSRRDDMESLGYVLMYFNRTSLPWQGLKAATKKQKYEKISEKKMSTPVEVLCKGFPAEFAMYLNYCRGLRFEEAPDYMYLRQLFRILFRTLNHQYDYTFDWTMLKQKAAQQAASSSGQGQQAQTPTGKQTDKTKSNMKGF
Sequence of UniProt Q5TCX8 (Q5TCX8 whole entry): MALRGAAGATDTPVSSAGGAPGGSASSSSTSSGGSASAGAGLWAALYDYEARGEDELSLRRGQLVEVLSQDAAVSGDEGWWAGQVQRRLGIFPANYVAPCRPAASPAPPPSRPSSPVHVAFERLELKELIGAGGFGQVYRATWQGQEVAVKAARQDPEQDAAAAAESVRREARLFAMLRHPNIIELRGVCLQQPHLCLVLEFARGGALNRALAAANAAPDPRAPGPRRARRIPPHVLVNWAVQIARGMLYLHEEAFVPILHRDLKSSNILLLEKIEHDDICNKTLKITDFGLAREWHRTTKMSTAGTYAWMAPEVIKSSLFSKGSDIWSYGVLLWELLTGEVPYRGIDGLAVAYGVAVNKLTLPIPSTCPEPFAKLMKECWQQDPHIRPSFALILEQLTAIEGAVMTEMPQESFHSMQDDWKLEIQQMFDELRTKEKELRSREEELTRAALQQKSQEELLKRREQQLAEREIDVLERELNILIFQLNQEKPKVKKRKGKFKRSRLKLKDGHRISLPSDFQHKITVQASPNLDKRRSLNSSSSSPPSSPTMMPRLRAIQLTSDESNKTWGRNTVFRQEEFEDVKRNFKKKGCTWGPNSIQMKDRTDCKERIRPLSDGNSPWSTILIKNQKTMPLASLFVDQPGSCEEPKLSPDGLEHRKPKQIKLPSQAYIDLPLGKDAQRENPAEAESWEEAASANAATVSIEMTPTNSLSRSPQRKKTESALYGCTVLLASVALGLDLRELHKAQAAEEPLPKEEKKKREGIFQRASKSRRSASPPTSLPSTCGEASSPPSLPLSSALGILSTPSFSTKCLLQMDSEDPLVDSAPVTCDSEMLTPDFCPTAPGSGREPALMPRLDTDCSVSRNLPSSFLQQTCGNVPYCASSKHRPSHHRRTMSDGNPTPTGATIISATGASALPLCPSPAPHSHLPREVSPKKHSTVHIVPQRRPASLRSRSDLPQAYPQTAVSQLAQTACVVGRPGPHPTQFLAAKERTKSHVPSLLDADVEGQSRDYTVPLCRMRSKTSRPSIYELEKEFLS
Sequence of PDIK1L (Q8N165 whole entry): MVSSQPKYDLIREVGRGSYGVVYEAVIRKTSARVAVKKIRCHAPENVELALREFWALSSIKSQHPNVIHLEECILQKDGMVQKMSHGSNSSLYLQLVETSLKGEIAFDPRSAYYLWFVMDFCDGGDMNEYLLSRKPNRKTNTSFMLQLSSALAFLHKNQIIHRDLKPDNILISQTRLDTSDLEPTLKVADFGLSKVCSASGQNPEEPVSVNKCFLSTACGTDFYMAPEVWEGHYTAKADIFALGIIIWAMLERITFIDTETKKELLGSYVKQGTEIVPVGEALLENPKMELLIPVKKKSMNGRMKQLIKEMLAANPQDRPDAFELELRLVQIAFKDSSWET

One may read the pIC50 as −log10 of the IC50, conventionally taken in molar units. A high value points to a low IC50. Take `Cc1cc(Nc2cc(C(=O)NCCNC(=O)OC3CC/C=C/CCC3)nc(N3CCN(Cc4ccc(S(=O)(=O)F)cc4)CC3)n2)n[nH]1` (stereo not drawn): the pIC50 in [1] (cell material: Lysate mix), in experiment [2], in experiment [3] (cell material: Lysate mix), in [4] (cell material: Lysate mix), in [5] (cell material: Lysate mix) and in [6] (cell material: Lysate mix) was under 4.52 in each case. Further, the pIC50 in experiment [7] was under 4.52; in experiment [8] (cell material: Lysate mix) it was under 4.52; in experiment [9] (cell material: Lysate mix), 5.15; in experiment [10] it was under 4.52.

With `C#CCNC(=O)c1cc(Nc2cc(C3CC3)[nH]n2)nc(N2CCN(Cc3ccc(S(=O)(=O)F)cc3)CC2)n1`, the pIC50 was 5.51 in experiment [1] (cell material: Jurkat cells); under 4.52 in experiment [1] (cell material: Jurkat lysate); under 4.52 in experiment [1] (cell material: Lysate mix); under 4.52 in [2]; 6.3 in experiment [3] (cell material: Jurkat cells); 5.64 in experiment [3] (cell material: Jurkat lysate). Also, the pIC50 in experiment [3] (cell material: Lysate mix) was 6.27; in [4] (cell material: Jurkat cells), 6.54; in experiment [4] (cell material: Jurkat lysate), under 4.52; in experiment [4] (cell material: Lysate mix) it was 4.84; in experiment [5] (cell material: Jurkat cells) it was 6.16; in [5] (cell material: Jurkat lysate) it was 5.61. The pIC50 was 5.64 in experiment [5] (cell material: Lysate mix); 5.4 in [6] (cell material: Jurkat cells); under 4.52 in experiment [6] (cell material: Jurkat lysate); under 4.52 in experiment [6] (cell material: Lysate mix); under 4.52 in experiment [7]; 5.78 in [8] (cell material: Jurkat cells). The pIC50 in experiment [8] (cell material: Lysate mix) was 4.8; in experiment [9] (cell material: Jurkat lysate) it was under 4.52; in experiment [9] (cell material: Lysate mix), under 4.52; in experiment [10], under 4.52.

Consider `CCNC(=O)c1cc(Nc2cc(C3CC3)[nH]n2)nc(N2CCN(Cc3ccc(S(=O)(=O)F)cc3)CC2)n1`, for which the pIC50 was under 4.52 in experiment [1] (cell material: Lysate mix); under 4.52 in experiment [2]; 5.94 in experiment [3] (cell material: Lysate mix); under 4.52 in experiment [4] (cell material: Lysate mix); 5.89 in experiment [5] (cell material: Lysate mix); under 4.52 in experiment [6] (cell material: Lysate mix). In addition, the pIC50 in experiment [7] is under 4.52; in [8] (cell material: Lysate mix) it was 4.65; in experiment [9] (cell material: Lysate mix), under 4.52; in experiment [10], under 4.52.

Consider `C#CCNC(=O)c1cc(Nc2cc(C)[nH]n2)nc(N2CCN(Cc3ccc(S(=O)(=O)F)cc3)CC2)n1`, for which the negative logarithm of the IC50 (pIC50) in experiment [1] (cell material: Lysate mix) was under 4.52; in experiment [2], under 4.52; in [3] (cell material: Lysate mix) it was 5.6; in experiment [4] (cell material: Lysate mix), under 4.52; in experiment [5] (cell material: Lysate mix), 5.14; in experiment [6] (cell material: Lysate mix) it was under 4.52. In addition, the pIC50 in experiment [7], in experiment [8] (cell material: Lysate mix), in [9] (cell material: Lysate mix) and in experiment [10] was under 4.52 in each case.

Turning to `O=C(NCCNC(=O)c1cc(Nc2cc(C3CC3)[nH]n2)nc(N2CCN(Cc3ccc(S(=O)(=O)F)cc3)CC2)n1)OC1CC/C=C/CCC1` (stereo not drawn), the pIC50 is under 4.52 in experiment [1] (cell material: Jurkat lysate); under 4.52 in experiment [1] (cell material: Lysate mix); under 4.52 in experiment [2]; 5.6 in experiment [3] (cell material: Jurkat cells); under 4.52 in experiment [3] (cell material: Lysate mix); 5.93 in [4] (cell material: Jurkat cells). Also, the pIC50 is under 4.52 in experiment [4] (cell material: Jurkat lysate); under 4.52 in experiment [4] (cell material: Lysate mix); 5.43 in experiment [5] (cell material: Jurkat cells); under 4.52 in experiment [5] (cell material: Jurkat lysate); under 4.52 in experiment [5] (cell material: Lysate mix); under 4.52 in experiment [6] (cell material: Jurkat lysate). In addition, the pIC50 in experiment [6] (cell material: Lysate mix) is under 4.52; in experiment [7], under 4.52; in experiment [8] (cell material: Jurkat cells) it was 4.93; in [8] (cell material: Jurkat lysate), under 4.52; in experiment [8] (cell material: Lysate mix) it was under 4.52; in experiment [9] (cell material: Jurkat cells), 5.96. Moreover, the pIC50 was 5.08 in experiment [9] (cell material: Jurkat lysate), 5.33 in [9] (cell material: Lysate mix) and under 4.52 in [10].

Take `CCNC(=O)c1cc(Nc2cc(C)[nH]n2)nc(N2CCN(Cc3ccc(S(=O)(=O)F)cc3)CC2)n1`: the pIC50 in experiment [1] (cell material: Lysate mix) was under 4.52; in experiment [2], under 4.52; in [3] (cell material: Lysate mix), 5.64; in [4] (cell material: Lysate mix), under 4.52; in experiment [5] (cell material: Lysate mix), 5.5; in experiment [6] (cell material: Lysate mix), under 4.52. The negative-log IC50 (pIC50) in [7], in experiment [8] (cell material: Lysate mix), in experiment [9] (cell material: Lysate mix) and in experiment [10] was under 4.52 throughout.
